In brackets after ≈: the same amount, converted by molar mass. Read-outs that look alike come from different tables or passages of the source.
How the values were obtained:
Staph. = assay: Range of MIC for Staph. strains, including MRSA; conditions: Staphylococcus aureus, MRSA
E. coli GC 2232 = assay: MIC, broth microdilution; conditions: Escherichia coli, GC2232, E. coli GC 2232
E. coli GC 3226 = assay: MIC, broth microdilution; conditions: Escherichia coli, GC3226, E. coli GC 3226
S. pyogenes GC 4563 = assay: MIC, broth microdilution; conditions: Streptococcus pyogenes, GC4563, S. pyogenes GC 4563
E. coli GC 2231 = assay: MIC, broth microdilution; conditions: Escherichia coli, GC2231, E. coli GC 2231
E. coli GC 2234 = assay: MIC, broth microdilution; conditions: Escherichia coli, GC2234, E. coli GC 2234
E. coli GC 2203 = assay: MIC, broth microdilution; conditions: Escherichia coli, GC2203, E. coli GC 2203
S. aureus GC 2216 = assay: MIC, broth microdilution; conditions: Staphylococcus aureus, GC2216, S. aureus GC 2216
E. coli GC 2271 = assay: MIC, broth microdilution; conditions: Escherichia coli, GC2271, E. coli GC 2271
P. aeruginosa GC 2214 = assay: MIC, broth microdilution; conditions: Pseudomonas aeruginosa, GC2214, P. aeruginosa GC 2214
E. faecium GC 4556 = assay: MIC, broth microdilution; conditions: Enterococcus faecium, GC4556, E. faecium GC 4556
E. coli GC 2236 = assay: MIC, broth microdilution; conditions: Escherichia coli, GC2236, E. coli GC 2236
S. aureus GC 6466 = assay: MIC, broth microdilution; conditions: Staphylococcus aureus, GC6466, S. aureus GC 6466
E. faecium GC 2243 = assay: MIC, broth microdilution; conditions: Enterococcus faecium, GC2243, E. faecium GC 2243
S. aureus GC 6469 = assay: MIC, broth microdilution; conditions: Staphylococcus aureus, GC6469, S. aureus GC 6469
Protocol: Antimicrobial susceptibility testing. The in vitro activities of the antibiotics are determined by the broth microdilution method as recommended by the National Committee for Clinical Laboratory Standards (NCCLS) (1). Mueller-Hinton II broth (MHBII)(BBL Cockeysville, Md.) is the medium employed in the testing procedures. Microtiter plates containing serial dilutions of each antimicrobial agent are inoculated with each organism to yield the appropriate density (10^5 CFU/ml) in a 100 μl final volume. The plates are incubated for 18-22 hours at 35° C. in ambient air.
Representative compounds were first incubated in mouse serum for an hour prior to the in vitro testing against a panel of selected gram-positive and gram-negative bacteria strains. All compounds were also pre-incubated in water for an hour prior to testing as control.

E. coli GC 2233 = assay: MIC, broth microdilution; conditions: Escherichia coli, GC2233, E. coli GC 2233
E. coli GC 2270 = assay: MIC, broth microdilution; conditions: Escherichia coli, GC2270, E. coli GC 2270
S. aureus GC 6335 = assay: MIC, broth microdilution; conditions: Staphylococcus aureus, GC6335, S. aureus GC 6335
E. faecalis GC 2265 = assay: MIC, broth microdilution; conditions: Enterococcus faecalis, GC2265, E. faecalis GC 2265

SMILES: CCCN(CC(=O)Nc1cc(N(C)C)c2c(c1O)C(=O)C1=C(O)[C@]3(O)C(=O)C(C(N)=O)=C(O)[C@@H](N(C)C)[C@@H]3C[C@@H]1C2)C(=O)OCc1ccccc1 [Example 14, benzyl 2-{[(5aR,6aS,7S,10aS)-9-(aminocarbonyl)-4,7-bis(dimethylamino)-1,8,10a,11-tetrahydroxy-10,12-dioxo-5,5a,6,6a,7,10,10a,12-octahydrotetracen-2-yl]amino}-2-oxoethyl(propyl)carbamate]
- MIC (Staph.; read-out: Range of MIC, Staph (Mouse Serum)): 1 to 8 µg/mL (≈ 1.42 to 11.3 µM)
- MIC (Staph.; read-out: Range of MIC, Staph (Water)): 2 to 8 µg/mL (≈ 2.83 to 11.3 µM)
- MIC (E. coli GC 2232; Mouse Serum pre-incubation): > 64 µg/mL
- MIC (E. coli GC 2232; Water pre-incubation): > 64 µg/mL
- MIC (E. coli GC 3226; Mouse Serum pre-incubation): > 64 µg/mL
- MIC (E. coli GC 3226; Water pre-incubation): > 64 µg/mL
- MIC (S. pyogenes GC 4563; Mouse Serum pre-incubation): 2 µg/mL (≈ 2.83 µM)
- MIC (S. pyogenes GC 4563; Water pre-incubation): 4 µg/mL (≈ 5.67 µM)
- MIC (E. coli GC 2231; Mouse Serum pre-incubation): > 64 µg/mL
- MIC (E. coli GC 2231; Water pre-incubation): > 64 µg/mL
- MIC (E. coli GC 2234; Mouse Serum pre-incubation): > 64 µg/mL
- MIC (E. coli GC 2234; Water pre-incubation): > 64 µg/mL
- MIC (E. coli GC 2203; Mouse Serum pre-incubation): 32 µg/mL (≈ 45.3 µM)
- MIC (E. coli GC 2203; Water pre-incubation): 64 µg/mL (≈ 90.7 µM)
- MIC (S. aureus GC 2216; Mouse Serum pre-incubation): 2 µg/mL (≈ 2.83 µM)
- MIC (S. aureus GC 2216; Water pre-incubation): 4 µg/mL (≈ 5.67 µM)
- MIC (E. coli GC 2271; Mouse Serum pre-incubation): > 64 µg/mL
- MIC (E. coli GC 2271; Water pre-incubation): > 64 µg/mL
- MIC (P. aeruginosa GC 2214; Mouse Serum pre-incubation): > 64 µg/mL
- MIC (P. aeruginosa GC 2214; Water pre-incubation): > 64 µg/mL
- MIC (E. faecium GC 4556; Mouse Serum pre-incubation): 4 µg/mL (≈ 5.67 µM)
- MIC (E. faecium GC 4556; Water pre-incubation): 8 µg/mL (≈ 11.3 µM)
- MIC (E. coli GC 2236; Mouse Serum pre-incubation): > 64 µg/mL
- MIC (E. coli GC 2236; Water pre-incubation): > 64 µg/mL
- MIC (S. aureus GC 6466; Mouse Serum pre-incubation): 2 µg/mL (≈ 2.83 µM)
- MIC (S. aureus GC 6466; Water pre-incubation): 8 µg/mL (≈ 11.3 µM)
- MIC (E. faecium GC 2243; Mouse Serum pre-incubation): 2 µg/mL (≈ 2.83 µM)
- MIC (E. faecium GC 2243; Water pre-incubation): 4 µg/mL (≈ 5.67 µM)
- MIC (S. aureus GC 6469; Mouse Serum pre-incubation): 2 µg/mL (≈ 2.83 µM)
- MIC (S. aureus GC 6469; Water pre-incubation): 4 µg/mL (≈ 5.67 µM)
- MIC (E. coli GC 2233; Mouse Serum pre-incubation): > 64 µg/mL
- MIC (E. coli GC 2233; Water pre-incubation): > 64 µg/mL
- MIC (E. coli GC 2270; Mouse Serum pre-incubation): > 64 µg/mL
- MIC (E. coli GC 2270; Water pre-incubation): > 64 µg/mL
- MIC (S. aureus GC 6335; Mouse Serum pre-incubation): 1 µg/mL (≈ 1.42 µM)
- MIC (S. aureus GC 6335; Water pre-incubation): 4 µg/mL (≈ 5.67 µM)
- MIC (E. faecalis GC 2265; Mouse Serum pre-incubation): 2 µg/mL (≈ 2.83 µM)
- MIC (E. faecalis GC 2265; Water pre-incubation): 8 µg/mL (≈ 11.3 µM)

Source: US20070049564A1 (Wyeth, priority 2005, published 2007)
